Drawing on PubChem BioAssay (NCI), this text covers TGI and GI50 for 29 compounds.

Experiment in all cases: NCI-60 cell line screen, 48 h
The test system of assay [1] is OVCAR-3 ovarian.
For assay [2], the system named is TK-10 renal.
The test system of assay [3] is MOLT-4 leukemia.
Assay [4] concerns KM12 colon.
The subject of assay [5] is IGROV1 ovarian.
Assay [6] relates to UACC-257 melanoma.
Assay [7] deals with NCI-H23 lung.
The test system of assay [8] is HCT-15 colon.
In assay [9] the test system is SW-620 colon.
Assay [10] has as its system LOX IMVI melanoma.

SMILES strings stand for the structures.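 Grown in 96-well plates, cells were treated for 48 hours with each compound at five concentrations. Insufficient inhibition: endpoint recorded as highest concentration tested. Here, GI50 denotes the concentration required for 50% inhibition of growth. TGI is the concentration that stops growth completely.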 A value given as a limit tells only on which side of the number the result lay.

Take `Cc1cc(C)nc(NS(=O)(=O)c2ccc(Nc3c4ccccc4nc4c(C(=O)N5CCN(CCOS(C)(=O)=O)CC5)ccc(Cl)c34)cc2)n1`: the TGI in assay [1], in assay [2], in assay [3], in assay [4], in [5] and in assay [6] was > 100 µM throughout. In addition, the TGI in [7] and in assay [8] was > 100 µM in each case.

Regarding `COC(=O)/C(=N\NC(=S)NN)C(C(=O)C(=O)Nc1ccccc1C(N)=O)c1nc2ccccc2[nH]c1=O` (stereo not drawn), the TGI in [9], in [2], in assay [3], in [4], in assay [5] and in assay [6] was > 100 µM each time. For the same compound, the TGI in assay [7] and in assay [8] was > 100 µM each time.

As for `OC(c1ccco1)C(F)(F)c1nc2ccccc2o1` (stereo not drawn), the TGI in [9], in assay [2], in [3], in [4], in assay [5] and in [6] was > 100 µM each time. Besides, the TGI in assay [7], in [8] and in [10] was > 100 µM throughout.

Regarding `COc1ccc(CCCCl)c(C2=NCCc3ccccc32)c1`, the TGI in assay [9], in assay [1], in assay [2], in assay [3], in [4] and in assay [5] was > 100 µM throughout. Besides, the TGI in [6], in assay [7] and in assay [8] was > 100 µM each time.

Regarding `CCOP(=O)(OCC)c1cc(-c2ccccc2)ccc1N`, the TGI in assay [9], in assay [1], in assay [2], in assay [3], in [4] and in assay [5] was > 100 µM throughout. Also, the TGI in assay [6], in [7] and in assay [8] was > 100 µM in each case.

As to `CCOC(=O)c1c(NC(=S)Nc2ccc(C)cc2)sc2c1CCN(C)C2`, the TGI in assay [1], in assay [2], in [3], in assay [4], in assay [5] and in assay [6] was > 100 µM in each case. Besides, the TGI in assay [7] and in assay [8] was > 100 µM in each case.

Regarding `FC(F)=C(c1ccc(-c2ccc(Cl)cc2)cc1)C(F)(F)F`, the TGI in assay [9] was 40.3 µM; in [2], 29.4 µM; in assay [3], > 100 µM; in [4] it was 36.7 µM; in assay [5], 33.9 µM; in assay [6], 37.5 µM. Besides, the values for the TGI in assay [7] and in assay [8] were 35.4 µM and 42.2 µM, respectively.

For the compound `O=c1oc2ccccc2c2nc3ccccc3cc12`, the TGI in assay [9], in [2], in assay [3], in assay [4], in [5] and in [6] was > 100 µM throughout. The TGI in assay [7] and in assay [8] was > 100 µM in each case.

For the compound `COC1OC2COC(C)(C)OC2C2OC(C)(C)OC12` (stereo not drawn), the TGI in [9] is > 100 µM; in assay [1], > 100 µM; in assay [2], > 100 µM; in [3], 87.9 µM; in assay [4], > 100 µM; in assay [5], > 100 µM. In addition, the TGI in assay [6], in assay [7] and in assay [8] was > 100 µM throughout.

As to `Nc1nc(Nc2ccc(OCc3cccc(F)c3)cc2)c2c(n1)[nH]c1ccc(O)cc12`, the GI50 was 2.54 µM in assay [9]; 1.89 µM in assay [1]; 3.49 µM in assay [2]; 2.77 µM in assay [3]; 3.55 µM in assay [4]; 3.75 µM in assay [5]. Moreover, the GI50 was 4.81 µM in assay [6], 4.12 µM in [7] and 3.61 µM in assay [8]. Besides, the TGI in assay [9] came out at 6.26 µM; in assay [1] it was 3.46 µM; in assay [2], 16.4 µM; in assay [3], 8.34 µM; in assay [4], 11.7 µM; in [5] it was 14.7 µM. The results for the TGI in assay [6], in assay [7] and in assay [8] were 22.2 µM, 22.2 µM and 16.2 µM, respectively.

For the compound `O=C1c2c(c3c4ccc(Br)cc4oc3c3[nH]c4ccccc4c23)C(=O)N1O`, the GI50 in assay [9] is 1.38 µM; in assay [2], 4.67 µM; in assay [3] it was 0.308 µM; in assay [7], 1.75 µM; in assay [8] it was 2.13 µM. Besides, the TGI is > 100 µM in assay [9]; > 100 µM in assay [2]; > 100 µM in [3]; 6.39 µM in assay [7]; > 100 µM in assay [8].

For the compound `O=C(NN1C(=O)CSC1c1ccc(Cl)c(Cl)c1)c1ccncc1` (stereo not drawn), the TGI in assay [9], in assay [2], in [3], in assay [4], in [5] and in [6] was > 100 µM in each case. The TGI in assay [7], in assay [8] and in assay [10] was > 100 µM throughout.

Turning to `Cc1ccc(-n2cc(-c3ccc(Cl)cc3)c3c2N=CN2NC(c4ccco4)=NC32)cc1` (stereo not drawn), the TGI was > 100 µM in assay [9]; 73.8 µM in assay [1]; 28.7 µM in [2]; 72.3 µM in assay [5]; > 100 µM in assay [6]; 72.4 µM in assay [7]. Moreover, the TGI in assay [8] and in assay [10] was > 100 µM throughout.

Consider `O=C(CN=C(CN(c1ccccc1)c1ccccc1)Oc1c(Cl)cc(Cl)cc1Cl)n1cnc2ccccc21`, for which the TGI in [9], in assay [1], in [2], in [3], in assay [4] and in assay [5] was > 100 µM throughout. For the same compound, the TGI in [6], in assay [7] and in assay [8] was > 100 µM in each case.

Take `C/C(=N\Nc1nc2ccccc2s1)c1cccnn1`: the TGI was > 100 µM in [9]; > 100 µM in [1]; > 100 µM in [3]; > 100 µM in [4]; 15.5 µM in assay [5]; > 100 µM in assay [6]. The TGI is 20.2 µM in assay [7] and > 100 µM in assay [8].

On to `C=C1CC=CC(C)(C)C1C/C=C(\C)C(O)CBr` (stereo not drawn), for which the TGI in assay [9] is 97.4 µM; in assay [2], > 100 µM; in assay [3], > 100 µM; in [4], > 100 µM; in [5], > 100 µM; in assay [6] it was > 100 µM. Also, the TGI is > 100 µM in [7], > 100 µM in assay [8] and 53.5 µM in [10].

As to `CCN(CC)C(=S)SS(=O)(=O)c1ccc(C)cc1`, the TGI is 45.2 µM in assay [9]; > 100 µM in assay [1]; > 100 µM in assay [2]; 30.6 µM in [4]; 46.3 µM in assay [6]; > 100 µM in [7]. Besides, the TGI is > 100 µM in assay [8] and 36.1 µM in [10].

Turning to `N/C(CSCCSC/C(N)=N/O)=N\O`, the TGI in [9], in [1], in assay [2], in assay [3], in assay [4] and in assay [5] was > 100 µM each time. In addition, the TGI in [7], in assay [8] and in assay [10] was > 100 µM each time.

For the compound `COC(=O)c1cc(C(=O)OC)cc(-c2ccc3c(c2)-c2nc4c(c(-c5ccc(OC)cc5)c2CC3)CCc2ccc(-c3cc(C(=O)OC)cc(C(=O)OC)c3)cc2-4)c1`, the TGI in assay [1], in assay [2], in [4], in assay [6], in assay [7] and in [8] was > 100 µM throughout.

Consider `Cc1ncc([N+](=O)[O-])n1CCNC(=O)CCCCn1ccnc1[N+](=O)[O-]`, for which the TGI in [9], in [1], in assay [3], in assay [4], in [5] and in assay [6] was > 100 µM in each case. Also, the TGI in assay [7] and in [8] was > 100 µM each time.

As to `CC(C)(C)c1ccc2c(c1)OCc1n[nH]c(n1)COc1cc(C(C)(C)C)ccc1OCCOCCO2`, the TGI in assay [9] worked out at 13.1 µM; in assay [1], 7.47 µM; in assay [2] it was 8.14 µM; in assay [3], 17.6 µM; in [4], 15.1 µM; in [5], 23.2 µM. Moreover, the TGI in assay [6] is 8 µM; in [7], 12.5 µM; in assay [8] it was 18.3 µM.

Regarding `NNC(=O)c1cccc2c1Oc1ccccc1S2`, the TGI in assay [9], in [2], in assay [3], in assay [4], in assay [5] and in [6] was > 100 µM in each case. In addition, the TGI in assay [7], in assay [8] and in [10] was > 100 µM in each case.

In the case of `COC(=O)[C@H]1C=C[C@H](OC2OC(COC(C)=O)C(OC(C)=O)C(OC(C)=O)C2OC(C)=O)n2c(=O)n(-c3ccccc3)c(=O)n21` (stereo partly drawn), the TGI is 5.68 µM in assay [9]; 11.3 µM in [1]; 15.4 µM in assay [2]; 6.16 µM in [3]; 25.1 µM in [4]; 18.4 µM in [5]. In addition, the TGI in assay [6] was 20.6 µM; in assay [7] it was 15.6 µM; in [8], 3.55 µM.

On to `CN1c2ccccc2C(=O)NC12CCN(CC1COc3ccccc3O1)CC2` (stereo not drawn), for which the TGI in assay [9] was > 100 µM; in assay [2] it was > 100 µM; in assay [3], 77.1 µM; in assay [4], > 100 µM; in [5], > 100 µM; in [6], > 100 µM. Moreover, the TGI in assay [7] and in [10] was > 100 µM throughout.

For `CCOC(=O)/C(=C/c1ccco1)P(=O)(OCC)OCC`, the TGI in [9], in assay [2], in [3], in assay [4], in assay [5] and in assay [6] was > 100 µM throughout. Also, the TGI in assay [7], in assay [8] and in [10] was > 100 µM throughout.

Consider `NC(=O)NC(=NCc1ccccc1)NCc1ccccc1`, for which the TGI in assay [9], in assay [1], in assay [2], in assay [4], in assay [5] and in assay [6] was > 100 µM throughout. For the same compound, the TGI in assay [7], in assay [8] and in assay [10] was > 100 µM throughout.

`CC1=NC(C)(C)N(O)C1(C)C`: the TGI in [9], in assay [1], in [2], in [3], in assay [4] and in assay [5] was > 100 µM each time. Also, the TGI in assay [7], in [8] and in [10] was > 100 µM throughout.

For `COc1ccc(CN2C(=O)C(=O)N(C)C2=O)c2ccccc12`, the TGI in [9], in assay [1], in assay [2], in assay [3], in assay [4] and in assay [5] was > 10 µM each time. Besides, the TGI in assay [7], in assay [8] and in [10] was > 10 µM in each case.

Turning to `COC(=O)C1=C(C)N2[C@H](C(=O)O)CS[C@@]2(C)[C@H](C(=O)OC)[C@H]1c1cccc([N+](=O)[O-])c1`, the TGI in assay [9], in assay [1], in assay [2], in assay [3], in assay [4] and in assay [5] was > 100 µM throughout. Further, the TGI in assay [6], in [7] and in [8] was > 100 µM throughout.
